Assay results published in ChEMBL document CHEMBL3108753, “FGFR1 Kinase Inhibitors: Close Regioisomers Adopt Divergent Binding Modes and Display Distinct Biophysical Signatures” (ACS Med Chem Lett, 2014).

Legend:
[1] = biological target: T1, Fibroblast growth factor receptor 1 (Homo sapiens, UniProt P11362); assay: Binding affinity to N-terminal 6xHis-tagged human recombinant FGFR1 (458 to 765) by isothermal titration calorimetric analysis
[2] = biological target: T1, Fibroblast growth factor receptor 1; assay: Inhibition of N-terminal GST-tagged human recombinant FGFR1 (456 to 765) after 40 mins by mobility shift assay

T1 sequence (P11362 whole entry): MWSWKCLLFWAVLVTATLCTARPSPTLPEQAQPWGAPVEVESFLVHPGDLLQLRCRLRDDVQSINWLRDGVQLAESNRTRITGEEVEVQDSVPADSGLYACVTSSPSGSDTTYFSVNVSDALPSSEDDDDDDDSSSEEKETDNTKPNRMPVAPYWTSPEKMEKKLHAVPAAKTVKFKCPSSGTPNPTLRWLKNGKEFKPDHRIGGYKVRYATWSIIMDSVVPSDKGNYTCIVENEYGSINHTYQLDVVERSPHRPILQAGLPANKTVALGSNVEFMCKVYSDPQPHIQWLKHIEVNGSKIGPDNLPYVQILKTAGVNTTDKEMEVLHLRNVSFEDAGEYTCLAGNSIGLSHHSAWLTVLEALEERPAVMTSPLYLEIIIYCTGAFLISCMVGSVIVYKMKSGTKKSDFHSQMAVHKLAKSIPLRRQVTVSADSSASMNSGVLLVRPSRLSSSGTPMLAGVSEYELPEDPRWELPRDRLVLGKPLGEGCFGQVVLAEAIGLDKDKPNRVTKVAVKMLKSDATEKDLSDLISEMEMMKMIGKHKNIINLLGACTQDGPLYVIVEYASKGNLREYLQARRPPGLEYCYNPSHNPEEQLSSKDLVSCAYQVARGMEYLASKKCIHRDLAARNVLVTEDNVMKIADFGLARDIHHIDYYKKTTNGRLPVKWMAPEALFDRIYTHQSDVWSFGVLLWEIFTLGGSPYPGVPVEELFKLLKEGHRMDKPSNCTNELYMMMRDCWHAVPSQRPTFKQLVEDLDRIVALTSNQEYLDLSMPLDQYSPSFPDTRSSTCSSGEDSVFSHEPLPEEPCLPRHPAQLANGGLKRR

Structure (SMILES): COc1cc(CCc2cc(Nc3ccnc(NCc4cc(C)no4)n3)n[nH]2)cc(OC)c1
- Kd [1]: 5.8 nM
- IC50 ([2]; read-out: IC50): 60 nM

Structure (SMILES): COc1ccc(CCc2cc(Nc3ccnc(NCc4cc(C)no4)n3)n[nH]2)cc1OC
- Kd [1]: 447 nM
- IC50 ([2]; read-out: IC50): 20000 nM
- IC50 ([2]; read-out: pIC50 (converted)): 100 nM
